Values of other authors, collected in patent US20190070136A1 (ASPIRO PHARMA LIMITED, priority 2017, published 2019).

SMILES: O=NN(CCCl)C(=O)NCCCl [Carmustine, 1,3-bis (2-chloroethyl)-1-nitrosourea]
- Log P: 1.53
